# Data from patent US12129221B2, “Difluoro phenyl amide RIP1 inhibitor” (SIRONAX LTD, priority 2018, dated 2024).
# Like-named read-outs stand apart in the source and are kept apart here.
# How the values were obtained:
# [1] = test system: ferroptosis; test: Ferroptosis inhibitor activity; format: cell-based; conditions: 1 uM threshold activity extrapolated
# Source text: Ferroptosis Inhibitor Activity 1 Um Threshold Activity Extrapolated
# [2] = molecular target: Human RIP1 kinase (Homo sapiens (Human), UniProt Q13546); test: Human RIP1 kinase assay; format: biochemical; conditions: given as bound or range
# Source text: (§1) Representative IC50 of hRIP1 Kinase Assay Correlated with Our IC50 of Cell Necrosis Assay: […]
# [3] = test system: necrosis; test: Necrosis inhibitory activity (cell necrosis / cell viability assay); format: cell-based
# Source text: Necrosis Inhibitory Activity
# as §1
# [4] = Hepatocyte stability, mouse; format: in vitro ADME; conditions: mouse, hepatocytes, Hepatocyte stability; read-out: Mouse T1/2
# Source text: (§2) Representative Metabolic Stability Data II, +, Extrapolated.
# [5] = PK in rat; design: species or system SD rat; conditions: Sprague-Dawley, in vivo
# Source text: Representative PK Date of Pro-Drug Compounds
# [6] = Liver microsome stability, dog; format: in vitro ADME; conditions: dog, liver microsomes, liver microsome stability; read-out: Dog T1/2
# Source text: (§3) Representative Metabolic Stability Data I; +, Extrapolated.
# [7] = Liver microsome stability, mini-pig; format: in vitro ADME; design: key to mini-pig T1/2 (min): +, Extrapolated; conditions: extrapolated
# Source text: as §3
# [8] = Hepatocyte stability, rat; format: in vitro ADME; conditions: rat, hepatocytes, Hepatocyte stability; read-out: Rat T1/2
# Source text: as §2
# [9] = Liver microsome stability, monkey; format: in vitro ADME; conditions: monkey, liver microsomes, liver microsome stability; read-out: Monkey T1/2
# Source text: as §3
# [10] = Liver microsome stability, mouse; format: in vitro ADME; conditions: liver microsomes
# Source text: as §3
# [11] = Hepatocyte stability, dog; format: in vitro ADME; conditions: dog, hepatocytes, Hepatocyte stability; read-out: Dog T1/2
# Source text: as §2
# [12] = Hepatocyte stability, human; format: in vitro ADME; conditions: human, hepatocytes, Hepatocyte stability; read-out: Human T1/2
# Source text: as §2
# [13] = Liver microsome stability, human; format: in vitro ADME; conditions: liver microsomes
# Source text: as §3
# [14] = Liver microsome stability, rat; format: in vitro ADME; conditions: liver microsomes
# Source text: as §3
# [15] = Hepatocyte stability, monkey; format: in vitro ADME; conditions: monkey, hepatocytes, Hepatocyte stability; read-out: Monkey T1/2
# Source text: as §2
# [16] = Prodrug enhanced metabolic stability: liver microsome (L); format: in vitro ADME; design: key: +, Extrapolated
# Source text: (§4) Prodrug Enhanced Metabolic Stability: Liver Microsome (L), Hepatocyte (H) and PK
# [17] = Prodrug enhanced metabolic stability: hepatocyte (H); format: in vitro ADME; design: key: +, Extrapolated
# Source text: as §4
# [18] = Prodrug enhanced metabolic stability: PK; format: in vivo; design: key: +, Extrapolated
# Source text: as §4
# [19] = test system: HT-29; test: EC50 in HT-29; format: cell-based; conditions: Homo sapiens
# [20] = PK in dog; conditions: in vivo
# [21] = PK in mouse; conditions: in vivo
# [22] = Necrosis Inhibitory Activity, given as range, read-out: EC50
# [23] = cell necrosis assay, given as bound or range, read-out: Cell viability assay, EC50
# [24] = rat, po, 60 mg/kg, SD rat, dose 60 mg/Kg micropower
# [25] = comparison table with WO2016/101885 compounds, read-out: Mouse Liver Microsome T1/2
# [26] = comparison table with WO2016/101885 compounds, read-out: Human Liver Microsome T1/2
# [27] = comparison table with WO2016/101885 compounds, read-out: Rat Liver Microsome T1/2
# Chain of Human RIP1 kinase (Q13546 whole entry): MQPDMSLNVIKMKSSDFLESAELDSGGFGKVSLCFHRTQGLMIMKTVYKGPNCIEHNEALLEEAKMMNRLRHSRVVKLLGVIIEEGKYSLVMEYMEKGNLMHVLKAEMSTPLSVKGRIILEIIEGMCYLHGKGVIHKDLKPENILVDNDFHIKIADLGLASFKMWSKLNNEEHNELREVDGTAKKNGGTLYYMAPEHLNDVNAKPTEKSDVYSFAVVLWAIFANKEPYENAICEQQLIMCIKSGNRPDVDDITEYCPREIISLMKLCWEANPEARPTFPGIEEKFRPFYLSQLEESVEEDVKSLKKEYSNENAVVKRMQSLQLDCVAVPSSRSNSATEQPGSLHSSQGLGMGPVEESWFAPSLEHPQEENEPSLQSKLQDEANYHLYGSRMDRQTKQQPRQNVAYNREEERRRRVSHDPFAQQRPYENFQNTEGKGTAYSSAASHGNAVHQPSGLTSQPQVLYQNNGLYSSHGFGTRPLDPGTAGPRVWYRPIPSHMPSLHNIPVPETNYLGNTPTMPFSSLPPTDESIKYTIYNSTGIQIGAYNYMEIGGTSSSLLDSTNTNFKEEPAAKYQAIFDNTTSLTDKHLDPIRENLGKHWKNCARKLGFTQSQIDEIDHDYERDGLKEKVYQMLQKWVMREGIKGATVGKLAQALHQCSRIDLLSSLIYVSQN
Structure (SMILES),EC50 [1],IC50 [2],"EC50 [3, 22]","EC50 [3, 23]",EC50 [19],"half-life [10, 25]","half-life [13, 26]","half-life [14, 27]",also measured
"CCC(C)(C)C(=O)N(O)Cc1ccc(Cl)c(F)c1 [Compound 16, N-(4-chloro-3-fluorobenzyl)-N-hydroxy-2,2-dimethylbutanamide]",1 to 10 µM,< 0.1 µM,0.001 to 1 µM,0.001 to 1 µM,,,,,
"CCC(C)(C)C(=O)N(O)Cc1ccc2c(c1)CCC2 [Compound 20, N-((2,3-dihydro-1H-inden-5-yl)methyl)-N-hydroxy-2,2-dimethylbutanamide]",1 to 10 µM,< 0.1 µM,0.001 to 1 µM,< 0.1 µM,,,,,
"CCC(C)(C)C(=O)N(O)Cc1ccsc1 [Compound 23, N-hydroxy-2,2-dimethyl-N-(thiophen-3-ylmethyl)butanamide]",1 to 10 µM,< 0.1 µM,0.001 to 1 µM,0.001 to 1 µM,,,,,
"CCC(C)(C)C(=O)N(O)Cc1cnc(C)s1 [Compound 24, N-hydroxy-2,2-dimethyl-N-((2-methylthiazol-5-yl)methyl)butanamide]",1 to 10 µM,0.1 to 1 µM,0.001 to 1 µM,0.001 to 1 µM,,,,,
"[2H]CC([2H])C(C)(C)C(=O)N(O)Cc1cc(F)cc(F)c1 (stereo not drawn) [Compound 26, N-(3,5-difluorobenzyl)-N-hydroxy-2,2-dimethylbutanamide-3,4-d2]",1 to 10 µM,,0.001 to 1 µM,,,,,,"half-life [4]: 21 min; AUC ([5]; SD rat, PO, dose 60 mg/Kg micropower): 8340 ng·h/mL; bioavailability [5, 24]: 74.1%; half-life [5, 24]: 171 min; half-life [6]: 2.31 min; mini-pig T1/2 (min) [7]: +; half-life [8]: 33.4 min; half-life [9]: 4.97 min; half-life ([10]; liver microsome stability, read-out: Mouse T1/2): 21.1 min; half-life [11]: 8.43 min; half-life [12]: 110 min; half-life ([13]; liver microsome stability, read-out: Human T1/2): 136 min; half-life ([14]; liver microsome stability, read-out: Rat T1/2): 23.3 min; half-life [15]: 19.3 min"
"O=C(N(O)Cc1ccccc1)C1(C(F)(F)F)CCC1 [Compound 35, N-benzyl-N-hydroxy-1-(trifluoromethyl)cyclobutane-1-carboxamide]",1 to 10 µM,0.1 to 1 µM,0.001 to 1 µM,0.001 to 1 µM,,,,,
"CCC1(C(=O)N(O)Cc2ccccc2)CC1 [Compound 38, N-benzyl-1-ethyl-N-hydroxycyclopropane-1-carboxamide]",1 to 10 µM,0.1 to 1 µM,1 to 10 µM,0.001 to 10 µM,,,,,
"Cc1ccsc1CN(O)C(=O)C(C)(C)C(F)(F)F [Compound 48, 3,3,3-trifluoro-N-hydroxy-2,2-dimethyl-N-((3-methylthiophen-2-yl)methyl)propanamide]",1 to 10 µM,0.1 to 1 µM,1 to 10 µM,0.001 to 10 µM,,,,,
"CC(C)(C(=O)N(O)Cc1ccccc1)C(F)F [Compound 74, N-benzyl-3,3-difluoro-N-hydroxy-2,2-dimethylpropanamide]",1 to 10 µM,,0.001 to 1 µM,,,,,,L [16]: +; H [17]: +; PK [18]: +
"CC(C)(C(=O)N(O)Cc1cc(F)cc(F)c1)C(F)F [Compound 75, N-(3,5-difluorobenzyl)-3,3-difluoro-N-hydroxy-2,2-dimethylpropanamide]",1 to 10 µM,,0.001 to 1 µM,,,,,,L [16]: +; H [17]: +; PK [18]: +
"CC(C)(CCF)C(=O)N(O)Cc1cc(F)cc(F)c1 [Compound 76, N-(3,5-difluorobenzyl)-4-fluoro-N-hydroxy-2,2-dimethylbutanamide]",1 to 10 µM,,1 to 10 µM,,,,,,L [16]: +; H [17]: +; PK [18]: +
"O=C(C1CCN(c2ncc(F)cn2)CC1)N(O)Cc1ccccc1 [Compound 84, N-benzyl-1-(5-fluoropyrimidin-2-yl)-N-hydroxypiperidine-4-carboxamide]",1 to 10 µM,< 0.1 µM,0.001 to 1 µM,< 0.1 µM,,,,,
"O=C(C1CCN(c2ncc(F)cn2)CC1)N(O)Cc1cc(F)cc(F)c1 [Compound 86, N-(3,5-difluorobenzyl)-1-(5-fluoropyrimidin-2-yl)-N-hydroxypiperidine-4-carboxamide]",1 to 10 µM,< 0.1 µM,0.001 to 1 µM,0.001 to 1 µM,,,,,
"CCOC(=O)ON(Cc1cc(F)cc(F)c1)C(=O)C(C)(C)CC [Compound 87, N-(3,5-difluorobenzyl)-N-((ethoxycarbonyl)oxy)-2,2-dimethylbutanamide]",,,,,,,,,"L [16]: +; H [17]: +; EC50 ([3]; Active Pro-drugs, read-out: EC50): 0.0678 µM; PK [18]: +"
CCC(C)(C)C(=O)N(O)Cc1cc(F)cc(F)c1F [SIR1-176],,,,,65 nM,9 min,67 min,22 min,
CCC(C)(C)C(=O)N(O)Cc1ccc(F)cc1F [SIR1-179],,,,,197 nM,23 min,198 min,28 min,
CCC(C)(C)C(=O)N(O)Cc1ccc(F)c(F)c1 [SIR1-180],,,,,55 nM,11 min,107 min,29 min,
CCC(C)(C)C(=O)N(O)Cc1ccc(F)cc1 [SIR1-181],,,,,64 nM,24 min,178 min,37 min,"AUC(0-inf) ([5]; Rat, PO 10 mg/kg): 24.3 ng·h/mL; Cmax ([5]; Rat, PO 10 mg/kg): 32.3 ng/mL; half-life ([5]; rat, po, 10 mg/kg, PO 10 mg/kg): 32.5 min; AUC(0-inf) ([20]; IV 5 mg/kg): 3210 ng·h/mL; clearance ([20]; IV 5 mg/kg): 25.9 mL/min/kg; half-life ([20]; IV 5 mg/kg): 120 min; Vd ([20]; IV 5 mg/kg, read-out: Vdss): 1.8 L/kg; AUC(0-inf) ([20]; PO 10 mg/kg): 148 ng·h/mL; Cmax ([20]; PO 10 mg/kg): 195 ng/mL; bioavailability ([20]; PO 10 mg/kg): 2.5%; half-life ([20]; PO 10 mg/kg): 276 min; AUC(0-inf) ([21]; IV 2 mg/kg): 522 ng·h/mL; clearance ([21]; IV 2 mg/kg): 63.7 mL/min/kg; half-life ([21]; IV 2 mg/kg): 35.7 min; Vd ([21]; IV 2 mg/kg, read-out: Vdss): 3.28 L/kg; AUC(0-inf) ([21]; PO 10 mg/kg): 1740 ng·h/mL; Cmax ([21]; PO 10 mg/kg): 2850 ng/mL; bioavailability ([21]; PO 10 mg/kg): 66.6%; half-life ([21]; PO 10 mg/kg): 30.8 min"
CCC(C)(C)C(=O)N(O)Cc1ccc(F)c(F)c1F [SIR1-184],,,,,272 nM,12 min,36 min,19 min,
CCC(C)(C)C(=O)N(O)Cc1cc(F)c(F)c(F)c1 [SIR1-186],,,,,46 nM,6 min,64 min,21 min,
